The values below come from ChEMBL document CHEMBL5154817, “Structure-activity relationship studies on O-alkylamino-tethered salicylamide derivatives with various amino acid linkers as potent anticancer agents” (Eur J Med Chem, 2022).

Some results are limits rather than exact numbers.

For orientation: IC50 means the concentration that gives 50% inhibition.

Data set [1] concerns MDA-MB-231. Kind of data set: Antiproliferative activity against human MDA-MB-231 cells assessed as inhibition of cell growth incubated for 72 hrs by MTT assay. Type of data set: functional, cell-based. The note with it: MDA-MB-231, 72 h. Background: Tetrazolium assays rely on reduction of a dye to a coloured formazan, in cell work by metabolically active cells.
The test system of data set [2] is MCF7. Kind of data set: Antiproliferative activity against human MCF7 cells assessed as inhibition of cell growth incubated for 72 hrs by MTT assay. Type of data set: functional, cell-based. The note with it: MCF7, 72 h.
Data set [3] has as its system T47D. The data set is described as follows: Antiproliferative activity against human T47D cells assessed as inhibition of cell growth incubated fro 72 hrs by MTT assay. Type of data set: functional, cell-based.
A short description of data set [4]: Cytotoxicity against human MCF-10A cells incubated for 72 hrs by MTT assay. Type of data set: toxicity, cell-based.
Data set [5] has as its system MDA-MB-468. The data set is described as follows: Antiproliferative activity against human MDA-MB-468 cells assessed as inhibition of cell growth incubated for 72 hrs by MTT assay. Type of data set: functional, cell-based. To be noted: MDA-MB-468, 72 h.

As to `C[C@H](NC(=O)c1cc(Cl)ccc1OCCNC(=O)OC(C)(C)C)C(=O)Nc1ccc([N+](=O)[O-])cc1Cl`, the IC50 in data set [1] and in data set [2] was > 10 µM in each case.

For `CC(C)[C@H](NC(=O)c1cc(Cl)ccc1OC1CCN(C(=O)OC(C)(C)C)CC1)C(=O)Nc1ccc([N+](=O)[O-])cc1Cl`, the half-maximal inhibitory concentration (IC50) in data set [1] and in data set [2] was > 10 µM throughout.

Regarding `CC(C)COC(=O)NCCOc1ccc(Cl)cc1C(=O)N[C@H](C(=O)Nc1ccc([N+](=O)[O-])cc1Cl)C(C)C`, the IC50 in data set [1] was 4.9 µM; in data set [2] it was 10.1 µM.

On to `CC(C)[C@H](NC(=O)c1cc(Cl)ccc1OCCCN)C(=O)Nc1ccc([N+](=O)[O-])cc1Cl`, for which the IC50 in data set [1] is 6.77 µM; in data set [2] it was > 10 µM.

Turning to `CC(C)[C@H](NC(=O)c1cc(Cl)ccc1OCCN)C(=O)Nc1cc(F)cc(C(F)(F)F)c1`, the figures for the IC50 in data set [1] and in data set [2] were 4.34 µM and > 10 µM, respectively.

On to `CC[C@@H](C)[C@H](NC(=O)c1cc(Cl)ccc1OCCN)C(=O)Nc1ccc([N+](=O)[O-])cc1Cl`, for which the results for the IC50 in data set [1] and in data set [2] were 6.18 µM and > 10 µM, respectively.

Turning to `CC[C@@H](C)[C@H](NC(=O)c1cc(Cl)ccc1OCCNC(=O)OC(C)(C)C)C(=O)Nc1ccc([N+](=O)[O-])cc1Cl`, the IC50 came to 4.02 µM in data set [1] and 10.5 µM in data set [2].

`CC(C)[C@H](NC(=O)c1cc(Cl)ccc1OCCNC(=O)OCc1ccccc1)C(=O)Nc1ccc([N+](=O)[O-])cc1Cl`: the IC50 in data set [1] and in data set [2] was > 10 µM in each case.

`CC(C)[C@H](NC(=O)c1cc(Cl)ccc1OC1CCNCC1)C(=O)Nc1ccc([N+](=O)[O-])cc1Cl`: the half-inhibitory concentration (IC50) in data set [1] was 5.23 µM; in data set [2], > 10 µM.

`CC(C)(C)OC(=O)NCCOc1ccc(Cl)cc1C(=O)N[C@@H](Cc1ccccc1)C(=O)Nc1ccc2c(c1)S(=O)(=O)C=C2`: the half-maximal inhibitory concentration (IC50) in data set [1] was 1.17 µM; in data set [2] it was 1.53 µM; in data set [3], 1.46 µM. Also, the IC50 at 72 h in data set [4] was found to be 1.73 µM.

Turning to `C[C@H](NC(=O)c1cc(Cl)ccc1OCCN)C(=O)Nc1ccc([N+](=O)[O-])cc1Cl`, the IC50 in data set [1] and in data set [2] was > 10 µM in each case.

Consider `CSCC[C@H](NC(=O)c1cc(Cl)ccc1OCCNC(=O)OC(C)(C)C)C(=O)Nc1ccc([N+](=O)[O-])cc1Cl`, for which the IC50 in data set [1] and in data set [2] was > 10 µM in each case.

For `CC(C)[C@H](NC(=O)c1cc(Cl)ccc1OCCNC(=O)OC(C)(C)C)C(=O)Nc1cc(F)cc(C(F)(F)F)c1`, the 50% inhibitory concentration (IC50) in data set [1] is 7.87 µM; in data set [2] it was 11.5 µM.

For the compound `CC(C)C[C@H](NC(=O)c1cc(Cl)ccc1OCCNC(=O)OC(C)(C)C)C(=O)Nc1ccc([N+](=O)[O-])cc1Cl`, the half-inhibitory concentration (IC50) in data set [1] and in data set [2] was > 10 µM in each case.

As for `CC(C)(C)OC(=O)N1CCC(Oc2ccc(Cl)cc2C(=O)N[C@@H](Cc2ccccc2)C(=O)Nc2ccc([N+](=O)[O-])cc2Cl)CC1`, the half-inhibitory concentration (IC50) in data set [1] and in data set [2] was > 10 µM throughout.

Regarding `CC(C)(C)OC(=O)N1CCC(Oc2ccc(Cl)cc2C(=O)N[C@@H](Cc2ccccc2)C(=O)Nc2cc(C(F)(F)F)cc(C(F)(F)F)c2)CC1`, the IC50 in data set [1] and in data set [2] was > 10 µM throughout.

As for `CC(C)[C@H](NC(=O)c1cc(Cl)ccc1OCCN)C(=O)Nc1ccc(C(F)(F)F)cc1Cl`, the half-maximal inhibitory concentration (IC50) is 5.44 µM in data set [1] and > 10 µM in data set [2].

As to `CC(C)[C@H](NC(=O)c1cc(Cl)ccc1OCCN)C(=O)Nc1cc(C(F)(F)F)cc(C(F)(F)F)c1`, the values for the IC50 in data set [1] and in data set [2] were 5.43 µM and 6.01 µM, respectively.

With `CC(C)(C)OC(=O)NCCOc1ccc(Cl)cc1C(=O)N[C@@H](CO)C(=O)Nc1ccc([N+](=O)[O-])cc1Cl`, the IC50 in data set [1] and in data set [2] was > 10 µM each time.

Take `NCCOc1ccc(Cl)cc1C(=O)NCC(=O)Nc1ccc2c(c1)S(=O)(=O)C=C2`: the results for the IC50 in data set [1] and in data set [2] were 6.37 µM and 9.44 µM, respectively.

For `CC(C)[C@H](NC(=O)c1cc(Cl)ccc1OCCCCNC(=O)OC(C)(C)C)C(=O)Nc1ccc([N+](=O)[O-])cc1Cl`, the 50% inhibitory concentration (IC50) in data set [1] and in data set [2] was > 10 µM in each case.

Take `O=C(N[C@@H](Cc1ccccc1)C(=O)Nc1cc(C(F)(F)F)cc(C(F)(F)F)c1)c1cc(Cl)ccc1OC1CCNCC1`: the IC50 in data set [1] worked out at 2.32 µM; in data set [2] it was 2.63 µM; in data set [5], 2.63 µM; in data set [3], 3.19 µM. Also, in data set [4], the IC50 at 72 h stood at 5.9 µM.

Take `CC(C)(C)OC(=O)NCCOc1ccc(Cl)cc1C(=O)N[C@@H](Cc1ccc(O)cc1)C(=O)Nc1ccc([N+](=O)[O-])cc1Cl`: the IC50 in data set [1] was > 10 µM; in data set [2], 8.81 µM.

Take `CC(C)(C)OC(=O)NCCOc1ccc(Cl)cc1C(=O)N[C@@H](Cc1ccccc1)C(=O)Nc1cc(C(F)(F)F)cc(C(F)(F)F)c1`: the IC50 in data set [1] and in data set [2] was > 10 µM throughout.

As for `NCCOc1ccc(Cl)cc1C(=O)N[C@@H](Cc1ccccc1)C(=O)Nc1ccc([N+](=O)[O-])cc1Cl`, the results for the IC50 in data set [1] and in data set [2] were 7.97 µM and 6.58 µM, respectively.

As for `CC(C)[C@H](NC(=O)c1cc(Cl)ccc1OCCN)C(=O)Nc1ccc([N+](=O)[O-])cc1Cl`, the IC50 in data set [1] and in data set [2] was > 10 µM each time.

Take `NCCOc1ccc(Cl)cc1C(=O)N[C@H](Cc1ccccc1)C(=O)Nc1ccc([N+](=O)[O-])cc1Cl`: the 50% inhibitory concentration (IC50) came to 5.02 µM in data set [1] and 4.89 µM in data set [2].

As to `CC(C)[C@H](NC(=O)c1cc(Cl)ccc1OCCCCN)C(=O)Nc1ccc([N+](=O)[O-])cc1Cl`, the IC50 is 5.59 µM in data set [1] and > 10 µM in data set [2].

Consider `COC(=O)NCCOc1ccc(Cl)cc1C(=O)N[C@H](C(=O)Nc1ccc([N+](=O)[O-])cc1Cl)C(C)C`, for which the concentration for half-maximal inhibition (IC50) in data set [1] and in data set [2] was > 10 µM throughout.

Turning to `CC(C)(C)OCC(NC(=O)c1cc(Cl)ccc1OCCN)C(=O)Nc1ccc([N+](=O)[O-])cc1Cl` (single isomer, unassigned), the 50% inhibitory concentration (IC50) in data set [1] is 3.22 µM; in data set [2], 1.62 µM.

Consider `CC(C)(C)OC(=O)CC[C@H](NC(=O)c1cc(Cl)ccc1OCCN)C(=O)Nc1ccc([N+](=O)[O-])cc1Cl`, for which the values for the IC50 in data set [1] and in data set [2] were 5.99 µM and 3.08 µM, respectively.

For `CC(C)[C@H](NC(=O)c1cc(Cl)ccc1OCCNC(=O)OC(C)(C)C)C(=O)Nc1ccc(F)c(F)c1`, the IC50 in data set [1] is 3.72 µM; in data set [2] it was > 10 µM.

As to `CC(C)[C@H](NC(=O)c1cc(Cl)ccc1OCCNC(=O)OC(C)(C)C)C(=O)Nc1cc(C(F)(F)F)cc(C(F)(F)F)c1`, the IC50 in data set [1] and in data set [2] was > 10 µM in each case.

As to `CSCC[C@H](NC(=O)c1cc(Cl)ccc1OCCN)C(=O)Nc1ccc([N+](=O)[O-])cc1Cl`, the IC50 in data set [1] and in data set [2] was > 10 µM each time.

Regarding `CC(C)[C@H](NC(=O)c1cc(Cl)ccc1OCCCNC(=O)OC(C)(C)C)C(=O)Nc1ccc([N+](=O)[O-])cc1Cl`, the half-maximal inhibitory concentration (IC50) in data set [1] and in data set [2] was > 10 µM in each case.

As to `NCCOc1ccc(Cl)cc1C(=O)N[C@@H](Cc1ccccc1)C(=O)Nc1cc(C(F)(F)F)cc(C(F)(F)F)c1`, the IC50 in data set [1] was determined as 4.92 µM; in data set [2] it was 2.95 µM.

As for `CC(C)[C@H](NC(=O)c1cc(Cl)ccc1OCCN)C(=O)Nc1ccc(F)c(F)c1`, the IC50 in data set [1] and in data set [2] was > 10 µM throughout.

As to `CC(C)(C)OC(=O)NCCOc1ccc(Cl)cc1C(=O)N[C@@H](Cc1ccccc1)C(=O)Nc1ccc([N+](=O)[O-])cc1Cl`, the IC50 in data set [1] and in data set [2] was > 10 µM in each case.

As for `NCCOc1ccc(Cl)cc1C(=O)N[C@@H](Cc1ccccc1)C(=O)Nc1ccc2c(c1)S(=O)(=O)C=C2`, the half-maximal inhibitory concentration (IC50) in data set [1] amounted to 1.4 µM; in data set [2], 1.62 µM; in data set [5], 3.53 µM; in data set [3], 1.58 µM. For the same compound, the IC50 at 72 h in data set [4] worked out at 2.03 µM.

`NCCOc1ccc(Cl)cc1C(=O)Nc1ccc([N+](=O)[O-])cc1Cl`: the IC50 in data set [1] turned out to be 3.48 µM; in data set [2] it was 4.14 µM; in data set [5], 5.05 µM; in data set [3], 1.88 µM.

For the compound `C=C(NC(=O)c1cc(Cl)ccc1OCCNC(=O)OC(C)(C)C)C(=O)Nc1ccc([N+](=O)[O-])cc1Cl`, the IC50 in data set [1] turned out to be 5.34 µM; in data set [2], 4.48 µM.

Consider `CC(C)[C@H](NC(=O)c1cc(Cl)ccc1OCCN)C(=O)Nc1ccc2c(c1)S(=O)(=O)C=C2`, for which the IC50 in data set [1] was determined as 5.95 µM; in data set [2], 4.35 µM.

For the compound `CC(C)(C)OC(=O)NCCOc1ccc(Cl)cc1C(=O)NCC(=O)Nc1ccc2c(c1)S(=O)(=O)C=C2`, the IC50 in data set [1] worked out at 2.08 µM; in data set [2], 1.43 µM.

Take `CC(C)(C)OCC(NC(=O)c1cc(Cl)ccc1OCCNC(=O)OC(C)(C)C)C(=O)Nc1ccc([N+](=O)[O-])cc1Cl` (single isomer, unassigned): the concentration for half-maximal inhibition (IC50) in data set [1] and in data set [2] was > 10 µM each time.

For the compound `O=C(N[C@@H](Cc1ccccc1)C(=O)Nc1ccc([N+](=O)[O-])cc1Cl)c1cc(Cl)ccc1OC1CCNCC1`, the results for the 50% inhibitory concentration (IC50) in data set [1] and in data set [2] were 3.24 µM and 4.48 µM, respectively.

For the compound `CC(C)(C)OC(=O)CC[C@H](NC(=O)c1cc(Cl)ccc1OCCNC(=O)OC(C)(C)C)C(=O)Nc1ccc([N+](=O)[O-])cc1Cl`, the IC50 in data set [1] and in data set [2] was > 10 µM in each case.

As for `CC(C)[C@H](NC(=O)c1cc(Cl)ccc1OCCNC(=O)OC(C)(C)C)C(=O)Nc1ccc(C(F)(F)F)cc1Cl`, the IC50 in data set [1] and in data set [2] was > 10 µM each time.

Turning to `O=C(Nc1ccc([N+](=O)[O-])cc1Cl)c1cc(Cl)ccc1O` [NICLOSAMIDE], the results for the half-maximal inhibitory concentration (IC50) in data set [1] and in data set [2] were 1.78 µM and 8.13 µM, respectively.

For the compound `CC(=O)NCCOc1ccc(Cl)cc1C(=O)N[C@H](C(=O)Nc1ccc([N+](=O)[O-])cc1Cl)C(C)C`, the half-maximal inhibitory concentration (IC50) in data set [1] and in data set [2] was > 10 µM in each case.

Regarding `CC(C)C[C@H](NC(=O)c1cc(Cl)ccc1OCCN)C(=O)Nc1ccc([N+](=O)[O-])cc1Cl`, the IC50 in data set [1] and in data set [2] was > 10 µM in each case.
